Values belong to the compound of their own block, whether it stands above or below them.
Compound: CC12CCC3C(CC=C4CC(O)CCC43C)C1CCC2=O (single isomer, unassigned; (+))
- melting point: 146 to 151 °C

Compound: c1ccc2c(c1)OCCOCCOCCOCCOc1ccccc1OCCOCCO2
- melting point: 59 to 63 °C

Compound: BrCCc1ccc(CCBr)cc1
- melting point: 73 °C

Compound: CCCCCCCCCCCCCCCCCBr
- melting point: 32 °C

Compound: O=C1C=C2C=C[C@@H]3C[C@@]2(O1)[C@H]1CCCCN31
- melting point: 142 °C

Compound: O=S1(=O)Cc2cccc3cccc(c23)C1
- melting point: 238 to 240 °C

Compound: CC(=O)OC1(C(C)=O)CCC2C3CCC4=CC(=O)CCC4(C)C3(F)C(O)CC21C (centres undefined)
- melting point: 268 °C

Compound: C[Si](C)(C)C=C[Si](C)(C)C
- melting point: -18.5 °C

Compound: O=C(O)c1c(Cl)c(Cl)c(Cl)c(Cl)c1C(=O)O
- melting point: 98 °C

Compound: COc1ccc(C(=O)c2cccc(Br)c2)cc1OC
- melting point: 97 °C

Compound: C=CC(=C)Cl
- melting point: -130 °C

Compound: Cc1cc(C(=O)O)c(C)n1Cc1ccncc1
- melting point: 171 to 173 °C

Compound: O=C(O)CCCCc1ccc(F)cc1
- melting point: 74 °C

Compound: Cc1ccc(CC#N)cc1
- melting point: 18 °C

Compound: CCCCCC=CCC=CCCCCCCCC(=O)OC
- melting point: -35 °C

Compound: OCC1Cc2ccccc2N1 (centres undefined)
- melting point: 49 to 58 °C

Compound: OC(c1ccc(F)cc1)(c1ccc(F)cc1)c1ccc(F)cc1
- melting point: 92 °C

Compound: COC1(OC)CC=CCC(OC)(OC)CC=CC1
- melting point: 201 to 202 °C

Compound: CCOC1OC2C(CO)OC(n3cnc4c(N)ncnc43)C2O1 (centres undefined)
- melting point: 228 to 231 °C

Compound: CN(C)c1ccc(C(O)(c2ccccc2)c2ccc(N(C)C)cc2)cc1
- melting point: 113 °C

Compound: NC(=O)C(=O)O
- melting point: 210 °C

Compound: BrCOCBr
- melting point: -34 °C

Compound: O=S1(=O)OC(c2ccc(O)c(Cl)c2)(c2ccc(O)c(Cl)c2)c2ccccc21
- melting point: 261 °C

Compound: O=C(/C=C/OC(=O)c1ccccc1)CCc1ccccc1
- melting point: 99 to 100 °C

Compound: O=CNC(c1ccccc1)C(O)c1ccccc1 (centres undefined)
- melting point: 205 °C

Compound: Cc1cc(C)c(O)c(C)c1C
- melting point: 80.5 °C

Compound: CCCCCCCCCCCCCCCCOCC(O)CO (centres undefined)
- melting point: 64 °C

Compound: Nc1cc2ccccc2cc1N
- melting point: 199 °C

Compound: Cc1cc(OC(=O)N(C)C)n(-c2ccccc2)n1
- melting point: 50 °C

Compound: CCOC(=O)c1c(-c2ccc(C)c(C)c2)csc1N
- melting point: 82 °C

Compound: COc1cc(C=CC(=O)O)ccc1OC(C)=O
- melting point: 195 °C

Compound: C=CC(=O)NC(CO)(CO)CO
- melting point: 136 to 141 °C

Compound: NCC1CCCC(CN)C1 (centres undefined)
- melting point: -70 °C

Compound: O=C(Nc1ccccc1CCc1ccccc1)c1ccccc1
- melting point: 166 °C

Compound: Cc1ccc(Sc2ccc(C=O)cc2[N+](=O)[O-])cc1
- melting point: 138 to 141 °C

Compound: CC(C)CC(N)CC(=O)O (centres undefined)
- melting point: 249 to 250 °C

Compound: O=C(Cl)C(=O)Cl
- melting point: -12 °C

Compound: COC(=O)[C@H](CC(=O)O)Cc1cccc2ccccc12
- melting point: 113 °C

Compound: N#Cc1ccc(O)c(F)c1F
- melting point: 147 °C

Compound: C[Si](C)(C)CC(=O)O
- melting point: 41 °C

Compound: CCCCCCC(O)C1C2=C(CC(C(O)C3CC=CC(=O)O3)CC3=C(C(=O)OC3=O)C1O)C(=O)OC2=O (centres undefined)
- melting point: 170 °C

Compound: Nc1c(F)cc(F)cc1Br
- melting point: 40 °C

Compound: Cc1ccc(C(=O)/C=C/c2ccc(Br)o2)o1
- melting point: 69 °C

Compound: Cc1ccc2nc3sc(=O)sc3nc2c1
- melting point: 170 °C

Compound: O=C(/C(=N/Nc1cccnc1)C(=O)C(F)(F)F)c1cccs1
- melting point: 150 °C

Compound: CC(C)(C)OC(=O)N1c2ccccc2CC1C(=O)O (centres undefined)
- melting point: 121 to 122 °C

Compound: CCOC(=O)c1sc(N)nc1C(F)(F)F
- melting point: 186 °C

Compound: O=C(O)c1ccc(-n2ccnc2)cc1
- melting point: 309 to 311 °C

Compound: ClCCCCCCCCCCCl
- melting point: 15.6 °C

Compound: CC1(C)CCC(=O)CC1=O
- melting point: 103 to 105 °C

More lines, now with the values ahead:

- melting point: 100 to 102 °C
Compound: ON=Cc1ccc(Cl)cc1

- melting point: 87 °C
Compound: O=C(O)CCc1ccccc1O

- melting point: 157 to 158 °C
Compound: O=C(O)c1cccc(-c2ccco2)c1

- melting point: 64 °C
Compound: O=[N+]([O-])c1ccc(S(=O)(=O)Cl)cc1C(F)(F)F

- melting point: 134 to 136 °C
Compound: COc1cc(F)ccc1C(=O)O

- melting point: 171 °C
Compound: CN1CCC(=O)NC1=O

- melting point: 80 to 81 °C
Compound: Ic1ccc(Cn2cccn2)cc1

- melting point: 100 °C
Compound: NC(CSc1ccccn1)=NO

- melting point: 124 °C
Compound: CC(C)(C)NCC(O)COc1cccc2c1CC(O)C(O)C2 (centres undefined)

- melting point: 77 °C
Compound: CCOC(=O)C(C(=O)OCC)C(C(=O)OCC)C(=O)OCC

- melting point: 62 to 63 °C
Compound: N#CC(c1ccccc1)N1CCCCC1 (centres undefined)

- melting point: 146 to 149 °C
Compound: Cc1ccc(C(=O)O)c(C(=O)O)c1

- melting point: 142 °C
Compound: Cc1n[nH]cc1-c1ccccc1

- melting point: -18 °C
Compound: CCCCCC(=O)CC(C)=O

- melting point: 113 to 115 °C
Compound: Cc1cc(C)n(C(N)=O)n1

- melting point: 252 to 255 °C
Compound: N=C1c2ccccc2C(=O)N1c1n[nH]c2ncccc12

- melting point: 198 to 202 °C
Compound: N#Cc1ccc(N2CCC(C(=O)NN)CC2)cc1

- melting point: 107 to 109 °C
Compound: CCNc1cc(NC(C)=O)ccc1C

- melting point: 60 °C
Compound: CC(=O)Oc1cc(-c2ccccc2)cc2ccccc12

- melting point: 154 °C
Compound: CCOC(=O)c1cc(C(=O)O)c([N+](=O)[O-])cc1[N+](=O)[O-]

- melting point: 120 to 125 °C
Compound: C1=CC2CC1[C@@H](P(c1ccccc1)c1ccccc1)[C@@H]2P(c1ccccc1)c1ccccc1

- melting point: 153 to 155 °C
Compound: CCOC(=O)Cc1nc(O)cs1

- melting point: 60 to 62 °C
Compound: COc1ccc(C(=O)C(C#N)=C(SC)SC)cc1

- melting point: 250 to 255 °C
Compound: O=C(CSc1nc(=O)[nH]c2c1CCCC2)c1ccccc1

- melting point: 105 to 110 °C
Compound: CC1CCC(=O)C1=O (centres undefined)

- melting point: 121 °C
Compound: Cc1cccc2c(=O)c(=O)c12

- melting point: 130 °C
Compound: COc1cc(C(=O)Nc2ccc3nn(C4CCCCC4)nc3c2)cc(OC)c1OC

- melting point: -4 °C
Compound: CCOc1ccccc1N

- melting point: 233 to 234 °C
Compound: O=C(O)c1cn2ccsc2n1

- melting point: 188 °C
Compound: Oc1c(Cl)cc(Cl)cc1Sc1cc(Cl)cc(Cl)c1O

- melting point: 253 °C
Compound: [O-][N+](=Nc1ccc(N=Nc2ccccc2)cc1)c1ccc(N=Nc2ccc(N=Nc3ccccc3)cc2)cc1

- melting point: -30.4 °C
Compound: CCOC(=O)C(C)(C)C(=O)OCC

- melting point: 43.5 °C
Compound: C#CCOc1c(Cl)cccc1Cl

- melting point: 91 °C
Compound: COc1cc(F)c(C#N)cc1F

- melting point: 199 to 201 °C
Compound: NS(=O)(=O)c1ccc(-c2ccc(C=O)o2)cc1

- melting point: 161 to 163 °C
Compound: NC(=S)c1ccc[nH]1

- melting point: 163 to 164 °C
Compound: CC(C)(C)OC(=O)N1CCC(C(N)=O)CC1

- melting point: 317 °C
Compound: Oc1c2cccc1Cc1cccc(c1O)Cc1cccc(c1O)Cc1cccc(c1O)C2

- melting point: 94 °C
Compound: C=Cc1ccccc1C(=O)O

- melting point: 198 to 202 °C
Compound: O=C(NC1(C(=O)O)Cc2ccccc2C1)OCC1c2ccccc2-c2ccccc21

- melting point: 87 °C
Compound: COc1ccccc1CCC(=O)O

- melting point: 108 °C
Compound: Cc1ccc([N+](=O)[O-])c(N)c1

- melting point: 315 °C
Compound: Cc1ccc(NC(=O)C=Cc2ccc(C=CC(=O)Nc3ccc(C)cc3)cc2)cc1

- melting point: 187 to 189 °C
Compound: O=S(=O)(c1ccc(N=C=S)cc1)c1ccc(N=C=S)cc1

Reference: a melting point compilation (Tetko et al.)
